Laboratory results reported in patent US4686283A, “Analogs of transforming and epidermal growth factor fragments for therapy and diagnosis” (Syntex (U.S.A.) Inc., priority 1985, dated 1987).
Where a SMILES comes first, the peptide text is derived from it. Bridges are numbered along the chain shown (N, C = ends).

Columns and labels:
EGF receptors = target: T1, EGF receptors (Mus musculus, UniProt Q01279); experiment: Competitive antagonism of 125I-EGF binding to LE II cells (Scatchard plots); parameters: species or system Murine; settings: in the presence of 20 μg/ml peptide, 4° C.; for apparent association constant for EGF: lower = more effective competitor
T1 construct: endogenous in cells; host or cells: LE II murine lung endothelial cells
Protocol: Murine lung endothelial cells identified as LE II were grown to confluence in 24 well cluster dishes in Dulbecco's minimal essential medium (DMEM) containing 10% fetal calf serum. Cells were washed twice with DMEM containing 1% bovine serum albumin and buffered at pH 7.4 with 50 mM Hepes buffer (DMEM-BSA). […] At the end of the incubation period, cells were washed three times with DMEM-BSA, lysed in 0.1N sodium hydroxide and cell-associated radioactivity was determined in a gamma counter.

[1] = test system: rabbit anti-TGF α-KLH IgG; experiment: Competitive radioimmunoassay: iodinated rabbit anti-TGF α-KLH IgG preincubated with inhibitor, then bound to BSA-peptide complex coated wells; assay type: binding; settings: no inhibitor 8400 ± 600 cpm
Protocol: A. Rabbit IgG antibodies to the compound [drawing 24] (anti-TGF α-KLH), as prepared in accordance with Example 7, were iodinated by the chloramine-T method. To 1 mg anti-TGF α-KLH antibody in 0.2M phosphate buffer (pH 7.6) was added 20 μl of a 2 mg/ml solution of chloramine-T and 1mCiNa^125 I for 3 minutes at room temperature. 1 mg KI was added and excess free iodine removed by chromatography on a Sephadex G-50 column. The specific activity of the antibodies varied between 200,000 and 400,000 counts per minute (cpm)/μg protein. Flexible polyvinylchloride plates were coated with a 1 mg/ml solution of BSA-peptide complex (prepared in accordance with Example 6A) in phosphate buffered saline (PBS) for 16 hours at 4° C. Plates were countered with a solution containing BSA and 1% Bovine gamma globulin.
These solutions were then added to the coated wells for an additional 2 hours at 37° C. After several washes with PBS containing 0.1% BSA, individual wells were cut apart and counted in a gamma counter.

LE II cells [2] = experiment: Inhibition of EGF-induced cell proliferation ([3H]-methylthymidine incorporation); assay type: cell-based, Murine; settings: induced by 2 × 10^-9 M EGF; for % Enhancement of thymidine incorporation: control 380 ± 20
Protocol: (§1) LE II cells were grown to confluence in 48 well cluster dishes and starved for two days in DMEM containing 0.5% fetal calf serum.
(§2) The percent enhancement of thymidine incorporation was used as the measure of cell proliferation. The lower the percentage of thymidine incorporation, the lower the rate of cell proliferation. Inhibition of EGF-induced cell proliferation by the foregoing compounds is reflected in Table II. Table III gives the inhibition of TGFα-induced cell proliferation.

LE II cells [3] = experiment: Inhibition of TGFα-induced cell proliferation ([3H]-methylthymidine incorporation); assay type: cell-based, Murine; settings: induced by 2 × 10^-9 M TGFα; for % of thymidine incorporation: control 420 ± 30
Protocol: as §1, §2

| Molecule | apparent association constant for EGF (EGF receptors) [M⁻¹] | cpm of iodinated anti-TGF α-KLH IgG bound to coated wells ([1]; inhibitor 10 ng/ml) [cpm] | cpm of iodinated anti-TGF α-KLH IgG bound to coated wells ([1]; inhibitor 100 ng/ml) [cpm] | cpm of iodinated anti-TGF α-KLH IgG bound to coated wells ([1]; inhibitor 1000 ng/ml) [cpm] | % Enhancement of thymidine incorporation, second figure relative to control = 100 (ratio of TGF α fragment/EGF counts per minute) (LE II cells [2]; peptide 10^-5 M) [%] | % Enhancement of thymidine incorporation (LE II cells [2]; peptide 10^-5 M) [%] | % Enhancement of thymidine incorporation, second figure relative to control = 100 (ratio of TGF α fragment/EGF counts per minute) (LE II cells [2]; peptide 10^-6 M) [%] | % Enhancement of thymidine incorporation (LE II cells [2]; peptide 10^-6 M) [%] | % Enhancement of thymidine incorporation, second figure relative to control = 100 (ratio of TGF α fragment/EGF counts per minute) (LE II cells [2]; peptide 10^-7 M) [%] | further results |
| --- | --- | --- | --- | --- | --- | --- | --- | --- | --- | --- |
| H-Cys-His-Ser-Gly-Tyr-Val-Gly-Val-Arg-Cys-OH (H-CHSGYVGVRC-OH; disulfide 1-10 (inferred)) [TGFα fragment peptide] |  |  |  |  |  |  |  |  |  | extrapolated saturation binding of 125I-EGF (EGF receptors; one hour, 0.51±0.03 nM in its absence): 0.5 ± 0.02 nM |
| TGFα: native human transforming growth factor alpha, used as inhibitor in the radioimmunoassay |  | 7600 ± 400 | 5100 ± 700 | 3800 ± 400 |  |  |  |  |  | cpm of iodinated anti-TGF α-KLH IgG bound to coated wells ([1]; inhibitor 1 ng/ml): 8600 ± 800 cpm |
| EGF: epidermal growth factor |  | 8800 ± 400 | 8200 ± 500 | 7600 ± 800 |  |  |  |  |  | cpm of iodinated anti-TGF α-KLH IgG bound to coated wells ([1]; inhibitor 10,000 ng/ml): 7800 ± 600 cpm |
| CC(C)[C@@H]1NC(=O)[C@H](Cc2ccc(O)cc2)NC(=O)CNC(=O)[C@H](CO)NC(=O)[C@H](Cc2c[nH]cn2)NC(=O)[C@@H](N)CSSC[C@@H](C(=O)O)NC(=O)[C@H](CCCNC(=N)N)NC(=O)[C@H](C)NC(=O)CNC1=O [Peptide 2] (H-CHSGYVGARC-OH; disulfide 1-10) | 1.5e+10 |  |  |  | 64 | 245 ± 25 | 97 | 370 ± 15 | 100 | % Enhancement of thymidine incorporation (LE II cells [2]; peptide 10^-7 M): 380 ± 20% |
| CC(C)[C@@H]1NC(=O)CNC(=O)[C@H](C(C)C)NC(=O)[C@H](Cc2ccc(O)cc2)NC(=O)CNC(=O)[C@H](CO)NC(=O)[C@H](Cc2c[nH]cn2)NC(=O)[C@@H](N)CSSC[C@@H](C(=O)O)NC(=O)[C@H](CCCNC(=N)N)NC1=O [Peptide 1] (H-CHSGYVGVRC-OH; disulfide 1-10) | 1.5e+10 |  |  |  | 70 | 265 ± 15 | 95 | 360 ± 20 | 103 | % of thymidine incorporation, second figure relative to control = 100 (LE II cells [3]; peptide 10^-5 M): 79%; % of thymidine incorporation (LE II cells [3]; peptide 10^-5 M): 330 ± 10%; % of thymidine incorporation, second figure relative to control = 100 (LE II cells [3]; peptide 10^-6 M): 95%; % of thymidine incorporation (LE II cells [3]; peptide 10^-6 M): 400 ± 20%; % of thymidine incorporation, second figure relative to control = 100 (LE II cells [3]; peptide 10^-7 M): 95%; % of thymidine incorporation (LE II cells [3]; peptide 10^-7 M): 400 ± 20% |
